# Data reported in patent US8053474B2, “Compound with carboxyl acid group and amide group and application thereof” (Corum Inc., priority 2009, dated 2011).
# What was measured:
# Mushroom Tyrosinase [1] = assay: Mushroom Tyrosinase Inhibition Test (Dopa base); format: biochemical; settings: Dopa base (L-Dopa 1 mg/mL, pH 6.5); sample solution 2% in water, 100 μL in 900 μL substrate; 3 min, 475 nm
# Protocol: Mushroom Tyrosinase Inhibition Test (Dopa Base):
# Preparation: L-Dopa (L-3,4-dihydroxyphenylalanine; 1 mg/mL) was dissolved in pH 6.5 buffer solution. Samples were dissolved in water and prepared the concentration at 2%.
# Method: 900 μL of L-Dopa solution was added into 100 μL of sample solution (or blank solution) and measured by thermo spectronic 475 nm (Aso or Ab0). 15 μL of mushroom […] buffer solution was added into mixture. After reaction for 3 min, mixture was measured by thermo spectronic (As3 or Ab3) (FIG. 1).
# Mushroom Tyrosinase [2] = assay: Mushroom Tyrosinase Inhibition Test (Tyrosine base); format: biochemical; settings: Tyrosine base (Tyrosine 5 mg/mL, pH 6.5); sample solution 2% in water, 100 μL in 900 μL substrate; 60 minutes, 492 nm
# Protocol: Mushroom Tyrosinase Inhibition Test (Tyrosine Base): Preparation: Tyrosine (5 mg/mL) were dissolved in pH 6.5 buffer solution. Samples were dissolved in water and prepared the concentration at 2%. Method: 900 μL of Tyrosine solution was added into 100 μL of sample solution (or blank solution) and measured by thermo spectronic 492 nm (Aso or Ab0). 40 μL of mushroom tyrosinase buffer solution was added into mixture. After reaction for 60 minutes, the mixture was measured by thermo spectronic (As60 or Ab60) (FIG. 2). Calculation: [formula]
# Water Solubility = format: physicochemical; settings: in water
Mushroom Tyrosinase Inhibition (Mushroom Tyrosinase [1]) [%],Mushroom Tyrosinase Inhibition (Mushroom Tyrosinase [2]) [%],Water Solubility (Water Solubility) [%],SMILES
56.3,78.4,33,"CN(C)CCCNC(=O)CCCCCCCC(=O)O [(III), 8-(3-Dimethylamino-propylcarbamoyl)-octanoic acid]"
60.0,99.3,29,"CN(C)CCCNC(=O)CCCCCCCCC(=O)O [(V), 9-(3-Dimethylamino-propylcarbamoyl) nonanoic acid]"

# Second part, the molecule before the results:
SMILES,Mushroom Tyrosinase Inhibition (Mushroom Tyrosinase [1]) [%],Mushroom Tyrosinase Inhibition (Mushroom Tyrosinase [2]) [%],Water Solubility (Water Solubility) [%]
"CN(C)CCNC(=O)CCCCCCCC(=O)O [(I), 8-(2-Dimethylamino-ethylcarbamoyl)-octanoic acid]",74.3,82.9,
"CC(C)N(CCNC(=O)CCCCCCCC(=O)O)C(C)C [(II), 8-(2-Diisopropylamino-ethylcarbamoyl)-octanoic acid]",45.7,77.2,22
"CN(C)CCNC(=O)CCCCCCCCC(=O)O [(IV), 9-(2-Dimethylamino-ethylcarbamoyl)-nonanoic acid]",50.6,84.1,17
"O=C(O)CCCCCCCC(=O)O [Azelaic acid, reference compound]",,,<0.5
